Data set [1] relates to Oryza sativa. The experiment in a line: Phytotoxicity against two-leaf stage Oryza sativa cv. Nihonbare (rice) planted 3 cm depth measured after […]. Format: organism-based. The conditions noted are these: in vivo.
For data set [2], the system named is Oryza sativa. The data set can be described thus: Phytotoxicity against two-leaf stage Oryza sativa cv. Nihonbare (rice) planted 1 cm depth measured after […]. Format: organism-based. The note with it: in vivo.
The subject of data set [3] is Schoenoplectiella juncoides. The experiment in a line: Herbicide activity against Schoenoplectiella juncoides under greenhouse condition compound treated at emergence-stage measured after 14 to 20 days. Format: functional.
Data set [4] deals with Echinochloa oryzicola. The data set can be described thus: Pre-emergence herbicide activity against Echinochloa oryzicola under greenhouse condition measured after 14 to 20 days. Format: functional.
Data set [5] concerns Echinochloa oryzicola. The experiment in a line: Herbicide activity against Echinochloa oryzicola under greenhouse condition compound treated at 2 leaf-stage measured after 14 to 20 days. Type of data set: functional.
For data set [6], the system named is Sagittaria pygmaea. The experiment in a line: Herbicide activity against Sagittaria pygmaea under greenhouse condition compound treated at 0.5 leaf-stage measured after 14 to 20 days. Type of data set: functional.

The structures appear in SMILES notation. Where only a bound is given, the exact number is not on record here.

Take `CC1=C(c2ccccc2)C(=O)N(C(C)(C)c2nc3cccc(Cl)c3s2)C1`: the MTD came out at 20 g/acre in data set [1] and 10 g/acre in data set [2]. Further, the MED in data set [3] is listed as 40 g/acre; in data set [4] it was 0.156 g/acre; in data set [5] it was less than 5 g/acre; in data set [6] it was 80 g/acre.

For the compound `CC1=C(Oc2ccc(Cl)cc2)C(=O)N(C(C)(C)c2nc3ccccc3s2)C1`, the MTD in data set [1] and in data set [2] was 40 g/acre each time. The MED is 160 g/acre in data set [3], 80 g/acre in data set [4], less than 5 g/acre in data set [5] and 160 g/acre in data set [6].

On to `CC1=C(c2ccc(Cl)cc2)C(=O)N(C(C)(C)c2nc3ccccc3s2)C1`, for which the MTD in data set [1] is reported as 40 g/acre; in data set [2], 20 g/acre. In addition, the MED is given as 160 g/acre in data set [3], 80 g/acre in data set [4], less than 5 g/acre in data set [5] and 160 g/acre in data set [6].

As to `CC1=C(c2ccc(F)cc2)C(=O)N(C(C)(C)c2nc3ccccc3s2)C1`, the MTD is recorded as 20 g/acre in data set [1] and greater than 5 g/acre in data set [2]. Also, the MED in data set [3] is 20 g/acre; in data set [4], 5 g/acre; in data set [5], 5 g/acre; in data set [6] it was 20 g/acre.

As to `CC1=C(c2ccccc2Br)C(=O)N(C(C)(C)c2nc3ccccc3s2)C1`, the MTD in data set [1] is given as 5 g/acre; in data set [2] it was greater than 5 g/acre. Also, the MED was 20 g/acre in data set [3], 2.5 g/acre in data set [4], less than 5 g/acre in data set [5] and 40 g/acre in data set [6].

On to `COc1ccc2nc(C(C)(C)N3CC(C)=C(c4ccccc4)C3=O)sc2c1`, for which the results for the MTD in data set [1] and in data set [2] were 10 g/acre and greater than 5 g/acre, respectively. Also, the MED in data set [3] came to 20 g/acre; in data set [4], 0.313 g/acre; in data set [5], 2.5 g/acre; in data set [6] it was 40 g/acre.

For `CC1=C(c2ccccc2)C(=O)N(C(C)(C)c2nc3ccccc3n2C)C1`, the MTD in data set [1] is 40 g/acre; in data set [2] it was 80 g/acre. The MED is 40 g/acre in data set [3], less than 10 g/acre in data set [4], less than 5 g/acre in data set [5] and 20 g/acre in data set [6].

With `CC1=C(c2cccc3ccccc23)C(=O)N(C(C)(C)c2nc3ccccc3s2)C1`, the MTD in data set [1] and in data set [2] was 80 g/acre each time. Moreover, the MED in data set [3], in data set [4] and in data set [6] was 80 g/acre in each case.

Turning to `CC(C)(c1nc2ccccc2s1)N1CC=C(c2ccccc2)C1=O`, the values for the MTD in data set [1] and in data set [2] were less than 20 g/acre and 2.5 g/acre, respectively. For the same compound, the MED in data set [3] is on record as 5 g/acre; in data set [4] it was 0.625 g/acre; in data set [5], 5 g/acre; in data set [6], 10 g/acre.

Consider `CC1=C(c2ccccc2)C(=O)N(C(C)(C)c2ccsc2)C1`, for which the MTD was found to be 40 g/acre in data set [1] and 20 g/acre in data set [2]. Also, the MED in data set [3] is 5 g/acre; in data set [4], 5 g/acre; in data set [5] it was less than 10 g/acre; in data set [6], 20 g/acre.

For the compound `CC1=C(Oc2ccccc2)C(=O)N(C(C)(C)c2nc3ccccc3s2)C1`, the MTD in data set [1] and in data set [2] was 40 g/acre in each case. Further, the figures for the MED in data set [3], in data set [4] and in data set [6] were 80 g/acre, 80 g/acre and 40 g/acre, respectively.

Take `CC1=C(c2ccccc2)C(=O)N(C(C)(C)c2ccc(Cl)s2)C1`: the figures for the MTD in data set [1] and in data set [2] were 20 g/acre and 10 g/acre, respectively. The MED in data set [3] is listed as 10 g/acre; in data set [4], 0.625 g/acre; in data set [5] it was 10 g/acre; in data set [6], 80 g/acre.

Take `CC1=C(c2ccccc2)C(=O)N(C(C)(C)c2nc3c(C)cccc3s2)C1`: the MTD in data set [1] came to 20 g/acre; in data set [2], 5 g/acre. Moreover, the MED in data set [3] was 160 g/acre; in data set [4] it was 2.5 g/acre; in data set [5] it was less than 5 g/acre; in data set [6], 80 g/acre.

For the compound `CC1=C(c2ccccc2C(F)(F)F)C(=O)N(C(C)(C)c2nc3ccccc3s2)C1`, the figures for the MTD in data set [1] and in data set [2] were 40 g/acre and 20 g/acre, respectively. For the same compound, the MED is given as 80 g/acre in data set [3], 20 g/acre in data set [4], less than 5 g/acre in data set [5] and 5 g/acre in data set [6].

In the case of `CC1=C(c2ccccc2)C(=O)N(C(C)(C)c2nc3cc(F)ccc3s2)C1`, the results for the MTD in data set [1] and in data set [2] were 10 g/acre and 1.25 g/acre, respectively. Further, the MED in data set [3] amounted to 40 g/acre; in data set [4], 1.25 g/acre; in data set [5] it was 5 g/acre; in data set [6], 20 g/acre.

In the case of `COc1ccc(C2=C(C)CN(C(C)(C)c3nc4ccccc4s3)C2=O)cc1`, the values for the MTD in data set [1] and in data set [2] were 40 g/acre and 10 g/acre, respectively. Besides, the MED in data set [3] is recorded as 80 g/acre; in data set [4] it was 20 g/acre; in data set [5], less than 5 g/acre; in data set [6], 80 g/acre.

For the compound `CC1=C(c2ccccc2C#N)C(=O)N(C(C)(C)c2nc3ccccc3s2)C1`, the MTD in data set [1] was 5 g/acre; in data set [2] it was greater than 5 g/acre. Moreover, the MED is listed as 5 g/acre in data set [3], 10 g/acre in data set [4], less than 5 g/acre in data set [5] and 40 g/acre in data set [6].

Regarding `CC1=C(c2ccccc2)C(=O)N(C(C)(C)c2cc3ccccc3o2)C1`, the MTD stood at 20 g/acre in data set [1] and 10 g/acre in data set [2]. In addition, the MED came to 80 g/acre in data set [3], 0.313 g/acre in data set [4], 2.5 g/acre in data set [5] and 80 g/acre in data set [6].

As to `CC1=C(c2ccccc2)C(=O)N(C(C)(C)c2nc3cc(C(=O)O)ccc3s2)C1`, the MTD in data set [1] is 20 g/acre; in data set [2], 10 g/acre. For the same compound, the MED is 80 g/acre in data set [3], 80 g/acre in data set [4], less than 5 g/acre in data set [5] and 80 g/acre in data set [6].

`CC1=C(c2ccccc2)C(=O)N(C(C)(C)c2nc(C(C)(C)C)cs2)C1`: the MTD was 10 g/acre in data set [1] and 5 g/acre in data set [2]. Moreover, the MED in data set [3] was 80 g/acre; in data set [4], 5 g/acre; in data set [5], 5 g/acre; in data set [6] it was 80 g/acre.

Consider `CC1=C(c2ccccc2)C(=O)N(C(C)(C)c2csc(-c3ccccc3)n2)C1`, for which the MTD in data set [1] and in data set [2] was 40 g/acre throughout. Besides, the MED in data set [3] was 40 g/acre; in data set [4], 40 g/acre; in data set [5] it was less than 5 g/acre; in data set [6], 40 g/acre.

For `CC1=C(c2ccccc2)C(=O)N(C(C)(C)c2nc3cc(C#N)ccc3s2)C1`, the MTD was 10 g/acre in data set [1] and 40 g/acre in data set [2]. The MED in data set [3] is listed as 20 g/acre; in data set [4], 5 g/acre; in data set [5] it was less than 5 g/acre; in data set [6], 40 g/acre.

As for `CC1=C(c2ccccc2)C(=O)N(C(C)(C)c2ncc(-c3ccc(Cl)cc3)s2)C1`, the MTD in data set [1] and in data set [2] was 80 g/acre in each case. The MED in data set [3] is reported as 160 g/acre; in data set [4], 40 g/acre; in data set [5], less than 5 g/acre; in data set [6], 160 g/acre.

With `CC1=C(c2ccccc2)C(=O)N(C(C)(C)c2sc3ccccc3[n+]2[O-])C1`, the MTD in data set [1] and in data set [2] was 80 g/acre each time. Moreover, the MED is on record as 160 g/acre in data set [3], less than 10 g/acre in data set [4], less than 5 g/acre in data set [5] and 160 g/acre in data set [6].

`CC1=C(c2ccccc2)C(=O)N(C(C)(C)c2nc3ccc(C)cc3s2)C1`: the values for the MTD in data set [1] and in data set [2] were 20 g/acre and 5 g/acre, respectively. Also, the MED in data set [3] was 80 g/acre; in data set [4] it was 10 g/acre; in data set [5], less than 5 g/acre; in data set [6], 20 g/acre.

Consider `CC1=C(c2cccc(C(F)(F)F)c2)C(=O)N(C(C)(C)c2nc3ccccc3s2)C1`, for which the MTD in data set [1] and in data set [2] was 20 g/acre in each case. Further, the MED in data set [3] is recorded as 160 g/acre; in data set [4] it was 80 g/acre; in data set [5], less than 5 g/acre; in data set [6], 160 g/acre.

On to `CC(=O)OC1=C(c2ccccc2)C(=O)N(C(C)(C)c2nc3ccccc3s2)C1`, for which the MTD in data set [1] and in data set [2] was less than 20 g/acre throughout. In addition, the MED in data set [3] is 80 g/acre; in data set [4], 80 g/acre; in data set [5], less than 5 g/acre; in data set [6] it was 80 g/acre.

In the case of `CC1=C(c2ccccc2)C(=O)N(C(C)(C)c2ccccn2)C1`, the results for the MED in data set [3], in data set [4] and in data set [6] were 40 g/acre, 20 g/acre and 80 g/acre, respectively.

Consider `CC1=C(c2ccccc2)C(=O)N(C(C)(C)c2nc3cc(Br)ccc3s2)C1`, for which the MTD in data set [1] and in data set [2] was 80 g/acre in each case. The MED in data set [3] was 160 g/acre; in data set [4], 20 g/acre; in data set [6] it was 160 g/acre.

(Values after ChEMBL document CHEMBL3046147, “Synthesis and Herbicidal Activity of 1-Arylalkyl-3-pyrrolin-2-one Derivatives” (J Pestic Sci, 2000).)
